Measured values from patent publication US10537552B2, “Substituted 5-hydroxyoxindoles and their use as analgesics and fever reducers” (CARAFE DRUG INNOVATION, LLC, priority 2015, dated 2020).

What was measured:
[1] = test system: liver (acute liver toxicity); assay: liver histology (pathohistological examination); type: in vivo, C57BL/6 mice
Description: In all experiments, mice were fasted overnight and then allocated randomly to receive either acetaminophen or equimolar dose of 5-hydroxy-7-methyloxindole by the intragastric route. Food was returned 4 h after the treatment. The two experimental groups were:
(a) Lower-dose group: Mice were administered acetaminophen (300 mg/kg) or 5-hydroxy-7-methyloxindole (324 mg/kg). After 7 h, the mice were sacrificed and liver and blood samples were taken for the analysis.
Seven hours after receiving the second injection, mice were sacrificed and liver and blood samples were taken for analysis.
A portion of the liver lobes of each mouse was fixed in 4% buffered paraformaldehyde, dehydrated in increasing concentrations of ethanol, and embedded in paraffin. Then, sections of tissue were cut to […] thickness using a rotary microtome, stained with hematoxylin and eosin, and then analyzed under a microscope.

opioid receptor = opioid receptor binding assay, non-selective, [3H]-naloxone; set-up: species or system rat
Description: The non-selective assay was performed according to the procedure described in Childers, European Journal of Pharmacology, 55:11-18, 1979, which is incorporated by reference. In summary, adult Male Sprague-Dawley rats were killed by decapitation and the brains rapidly removed and placed in ice-cold buffer. The cerebral cortex was dissected and homogenized in buffer and the homogenates were further centrifuged. The binding experiments were performed at 25° C. for 40 min. Reaction mixtures contained tissue suspension, unlabeled drug and [^3H]-naloxone (1 nM) radioligand.
(§1) An inhibition greater than about 50% represented significant effects of the test compound. An inhibition of about 25% to about 50% was indicative of weak to moderate effects. An inhibition less than about 25% are not considered significant and may be primarily attributable to variability of the signal around the control level.

COX1 (h) = target: T1, COX1 (h) (Homo sapiens, UniProt P23219); assay: COX1 enzyme assay; type: biochemical
T1 construct: host or cells: Sf9 cells
Description: (§2) The assay was performed according to the procedure described in Glaser, European Journal of Pharmacology, 281:107-111, 1995, which is incorporated by reference. Recombinant enzymes were reconstituted in buffer. The enzyme preparations were preincubated with DMSO vehicle or compounds in DMSO for 5 min at 37° C. and the human recombinant enzyme expressed in Sf9 cells.
as §1

COX2 (h) = target: T2, COX2 (h) (Homo sapiens, UniProt P35354); assay: COX2 enzyme assay; type: biochemical
T2 construct: host or cells: Sf9 cells
T2 sequence (P35354 18-604): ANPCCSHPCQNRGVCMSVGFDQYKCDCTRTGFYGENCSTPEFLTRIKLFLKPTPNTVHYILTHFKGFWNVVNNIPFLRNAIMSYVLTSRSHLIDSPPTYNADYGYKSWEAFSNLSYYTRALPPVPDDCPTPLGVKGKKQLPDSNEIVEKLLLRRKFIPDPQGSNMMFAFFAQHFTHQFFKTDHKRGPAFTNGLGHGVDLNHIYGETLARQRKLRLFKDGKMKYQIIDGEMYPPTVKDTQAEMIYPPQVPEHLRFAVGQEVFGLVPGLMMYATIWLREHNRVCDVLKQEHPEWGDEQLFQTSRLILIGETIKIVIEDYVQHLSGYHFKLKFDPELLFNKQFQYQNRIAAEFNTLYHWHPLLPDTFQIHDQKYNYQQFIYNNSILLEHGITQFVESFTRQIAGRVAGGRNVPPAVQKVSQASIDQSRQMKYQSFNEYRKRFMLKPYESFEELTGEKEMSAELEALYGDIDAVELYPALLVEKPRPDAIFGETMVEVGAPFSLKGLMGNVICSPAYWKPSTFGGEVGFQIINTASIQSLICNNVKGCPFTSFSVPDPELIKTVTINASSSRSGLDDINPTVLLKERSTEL
Description: as §2, §1

[2] = solubility observed when preparing dosing vehicle; type: physicochemical
Description: Acetaminophen was acquired from Sigma-Aldrich Corp. (St. Louis, Mo., USA); 5-hydroxy-7-methyloxindole was provided by CaRafe Drug Innovation, LLC (Norristown, Pa., USA) in the form of a powder. […] […] This procedure provided a crude suspension, but it precipitated after some time, therefore vortexing was repeated prior to each injection. Acetaminophen was prepared in the same vehicle (6% Tween® 20 reagent) using light magnetic stirring.

[3] = test concentration 1 × 10^−5 M, human recombinant enzyme expressed in Sf9 cells

T1 sequence (P23219 24-599): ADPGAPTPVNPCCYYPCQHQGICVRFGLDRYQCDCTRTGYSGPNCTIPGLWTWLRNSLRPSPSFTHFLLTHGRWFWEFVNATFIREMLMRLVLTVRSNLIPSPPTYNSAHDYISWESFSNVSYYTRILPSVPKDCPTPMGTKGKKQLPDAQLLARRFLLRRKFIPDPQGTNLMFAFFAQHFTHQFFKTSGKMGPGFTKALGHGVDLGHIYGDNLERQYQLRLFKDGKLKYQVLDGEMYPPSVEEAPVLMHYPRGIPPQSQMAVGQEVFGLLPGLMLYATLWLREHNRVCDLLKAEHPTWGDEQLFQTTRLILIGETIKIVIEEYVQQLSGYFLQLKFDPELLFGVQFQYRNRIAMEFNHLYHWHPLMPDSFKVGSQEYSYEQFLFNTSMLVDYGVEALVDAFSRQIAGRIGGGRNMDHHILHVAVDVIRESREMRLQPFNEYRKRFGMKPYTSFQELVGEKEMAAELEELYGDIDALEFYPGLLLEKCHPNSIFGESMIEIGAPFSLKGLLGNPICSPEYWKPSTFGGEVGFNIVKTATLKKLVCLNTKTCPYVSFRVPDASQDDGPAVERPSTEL

With `Cc1cc(O)cc2c1NC(=O)C2` [5-hydroxy-7-methyloxindole, 5-Hydroxy-7-methyloxindole] the “liver injury on pathohistological examination” value ([1]; higher-dose protocol: two cumulative injections 2.5 h apart, 7 h after second injection) was “without visible liver injury”, the “liver injury on pathohistological examination” value ([1]; lower-dose protocol: acetaminophen 300 mg/kg or 5-hydroxy-7-methyloxindole 324 mg/kg, 7 h) was “no visible sign of liver injury” and the “binding to opioid receptor, in words” value (opioid receptor) was “binds minimally, if at all”. For the same compound, the “Mean Inhibition (%)” value (opioid receptor; test concentration 1 × 10^−5 M, rat cerebral cortex, [3H]-naloxone 1 nM) was −9.7%, the “binding to COX1 receptor, in words” value (COX1 (h)) was “binds minimally, if at all” and the inhibition at 10 µM (COX1 (h); [3]) was -29%. For the same compound, the “binding to COX2 receptor, in words” value (COX2 (h)) was “binds minimally, if at all”, the inhibition at 10 µM (COX2 (h); [3]) was -6.8% and the solubility ([2]; general statement) was “low solubility”. The solubility in saline ([2]; saline, for dosing) was “not sufficiently soluble”.
